According to patent US20240034761A1, “REGENERATION OF MAMMALIAN TISSUES USING SYNTHETIC IMMODULINS” (priority 2022, published 2024):
Marks after values point to notes of the source that are not given here. Square brackets hold non-standard residues; d marks the D form. Ends that are not written are not given here. Peptide text beside a SMILES is read from it.

Tests used:
[1] = tested on: HFF-1 human fibroblast cell line; test: Collagen stimulating activity in HFF-1 dermal fibroblasts (Collagen-1 ELISA); type: cell-based; details: peptide 2 uM, 72 hour; control (buffer) set to 100
Method: Immodulin peptides have potential untility in the field of cosmetics. HFF-1 human fibroblast cell line was obtained from the American Type Culture Collection (ATCC). Cells were grown in a T-75 flask in DMEM Medium containing 10% fetal bovine serum and penicillin-streptomycin at 37° C. in a humidified, 5% CO2 incubator. Cells ([…], 2,000 cells/well) were plated in a 96-well plate and incubated overnight at 37° C. in a humidified, 5% CO2 incubator. Next day, […] of compounds were added (quadruplicate wells). After 72 hour incubation with the compound, supernatants were collected for Collagen-1 ELISA assay and cell viability was measured in a luminometer after the addition of […] CellTiterGlo reagent (Promega Inc, Madison, WI) as recommended by the manufacturer. Collagen stimulating activity of immodulin peptides in HFF-1 dermal fibroblasts: Peptides were added to cells at 2 uM. Collagen-1A1 (COL1) immunoreactivity was measured in the supernatants of cultured cells by ELISA using a rabbit monoclonal anti-COL1 primary antibody (Abcam, Cambridge, MA). Control (buffer) value of immunoreactivity was set to 100.

[2] = tested on: THP1-Dual monocyte reporter cell line; test: THP1-Dual myeloid cell differentiation assay (PMA protocol); type: cell-based, human; details: PMA 24 h, then peptide 0.33 uM or 0.66 uM 24 h; for CD169+ (AU) / Clec12A(AU): relative to immX3AVD = 100; for CCL22: culture supernatant
Method: (§1) Mammalian cell differentiation assays employed the THP1-Dual monocyte reporter cell line (Invivogen Inc, San Diego, CA) seeded at 2×10e5 cells per well in 96-well plates and cultured at 37 degrees C. in RPMI-1640 growth medium plus 10% fetal bovine serum and 1% penicillin/streptomycin. Cells were subsequently treated for 24 hours with 100 ng/ml Phorbol 12-myristate 13-acetate (PMA protocol; Cayman Chemical Company, Ann Arbor, MI). Peptide (0.33 uM or 0.66 uM, as indicated) was then added, and incubation continued for an additional 24 hours. Culture supernatants were assayed for CCL22. Plates with adherent cells were washed with PBS and assayed for immunoreactivity of surface markers such as CD169, Clec9a or Clec12a using fuorescent tag- or biotin-labeled anti-human antibodies purchased from Miltenyi Biotec (Auburn, CA) and the secondary detection reagent recommended by the manufacturer.

[3] = tested on: Primary human T-cells pre-selected for recognizing GAD65 peptide antigen; test: GAD65-specific primary T-cell differentiation on peptide-treated THP1-Dual cells; type: cell-based; details: peptide 0.66 uM, GAD65 1 ug/ml; for FoxP3 (AU): cell extracts, immX3AVD = 100
Method: as §1
Another non-myeloid lineage was also tested. Primary human T-cells pre-selected for recognizing GAD65 peptide antigen, and the peptide antigen itself were purchased from Cellero LLC (Memphis, TN). THP1-Dual cells were treated with both GAD65 peptide antigen (1 ug/ml) and immodulin peptide (0.66 uM) using the protocol described in Example 2. After completion of the myeloid cell differentiation step (24 hours), supernatants were collected and 100,000 primary T-cells were added to each well in RPMI-1640 medium (100 uL per well). Plates were incubated for an additional 96 hours and cell extracts were prepared using CellLytic-M reagent (Sigma Chemical Co., St Louis, MO). Supernatants were assayed for CCL22, IL-10 and TGFbeta, and cell extracts assayed for FoxP3, all by ELISA using reagents from R&D Systems, Minneapolis, MN. The results are shown in the table below (**p<0.05 vs immX3AVD, set to=100): […]

[4] = tested on: C2C12 myoblastic cell line; test: C2C12 myoblast differentiation, creatine kinase; type: cell-based; details: 0.66 uM peptide, 96 hours; helper none; relative to immX3AVD = 100
Method: Differentiation assays employed the C2C12 myoblastic cell line (ATCC, Manassas, VA) seeded at 2×10e5 cells per well in 96-well plates and cultured at 37 degrees C. in DMEM growth medium plus 10% fetal bovine serum and 1% penicillin/streptomycin. For differentiation, 10% fetal bovine serum was replaced with 2% horse serum. 0.66 uM peptide was then added, and incubation continued for an additional 96 hours. Plates with adherent cells were washed with PBS, lysed with Lytic-M buffer (Sigma Chemical Company, St. Louis, MO) and the lysates were assayed for creatine kinase using a kit purchased from Bioassay Systems (Cat. #ECPK-100, Hayward, CA). Effects were visually confirmed with microscopy tracking myotube formation. Results were expressed as units per milliliter relative to the control immX3AVD peptide, and p values were also calculated and shown relative to control immX3AVD peptide (** p<0.05 versus immX3AVD control; avg±SD).

[5] = Plate binding of FITC-labelled heparin to immobilised biotinylated peptides; details: 400 ng peptide/well, 1 ug FITC-heparin, PBS; normalized to immX3 peptide binding = 100
Method: (§2) Effects of pH, PIP2 and size classes: Streptavidin-coated 96-well plates (G-Biosciences, St. Louis, MO) were pre-loaded with biotinylated peptides [see Example 1] at 400 ng/well, at room temperature for 60 minutes. The plate was washed with PBS buffer and then 1 ug FITC-labelled heparin or hyaluronic acid (FITC-HMW-HA) in 100 uL PBS buffer was added per well (all tests done in quadruplicate). Incubation proceeded for 90 minutes at room temperature, followed by two PBS washes. The plate was read in a standard laboratory fluorometer (488/525 nm exitation/[…]) and the counts normalized for immX3 peptide binding=100. Values statistically above background are shown in bold font. **p<0.05 versus immX3AVD.

[6] = Plate binding of FITC-labelled hyaluronic acid to immobilised biotinylated peptides; details: 400 ng peptide/well, 1 ug FITC-HMW-HA, PBS; normalized to immX3 peptide binding = 100
Method: as §2

[7] = PIP-binding membrane assay (Membrane Lipid Strips); parameters: key: —: −−− no binding; +++ strong binding; details: 400 ng peptide
Method: N-terminally biotinylated versions of the peptides listed below were used in various assays listed in the examples. For the two types of phosphatidylinositon phosphate (PIP)-binding assays, imm1-imm6 peptides were used.
In the PIP-binding membrane assay, 400 ng of each peptide was bound to Membrane Lipid Strips (Catalog # P-6002, Echelon Biosciences, Salt Lake City, UT) and developed according to the manufacturer's instructions. Binding to PIPs was as follows (−−− no binding; +++ strong binding): […]

[8] = Second binding experiment: FITC-HMW-HA binding with holotransferrin, pH and cold competitors; parameters: key to FITC-HMW-HA binding, +cold LMW-HA / FITC-HMW-HA binding, +cold HMW-HA: fluorescence counts normalized to peptide binding control = 100; details: holotransferrin 10 ug/well; for FITC-HMW-HA binding, +cold HMW-HA: HMW-HA 10 ug/well; for FITC-HMW-HA binding, +cold LMW-HA: LMW-HA hexamer 10 ug/well; for FITC-HMW-HA binding, +cold PIP2: excess PIP2 500 ng/well
Method: as §2
A second binding experiment was done as above, but using either 6 mM sodium phosphate buffer pH 7.4 or sodium citrate buffer pH 5.2 in the presence of FITC-HMW-HA (1.5 ug/well), holotransferrin (10 ug/well) and excess PIP2 (500 ng/well), LMW-HA (hexamer; 10 ug/well) or HMW-HA (10 ug/well). **p<0.05 versus peptide binding control (=100);

Compound: AFNSYELGSKKGFYKKKQCRPSKGRKRGFCW [imm3K9.1]
- COL1 (Collagen-1A1 immunoreactivity in supernatant) [1]: 156**

Compound: KKGFYKKKQCRPSKGRKRGFCW(dS)(dV)(dD) (KKGFYKKKQCRPSKGRKRGFCW[dS][dV][dD]; cysteine pairing not given here) [immX3dSdVdD]
- CD169+ (AU) [2]: 145.7 ± 9.3 AU
- FoxP3 (AU) [3]: 176.6 ± 8.0** AU
- CCL22 ([3]; supernatant): 77.8 ± 2.0 pg/mL
- IL-10 ([3]; supernatant): 1534 ± 176.4 pg/mL
- TGFb ([3]; supernatant): 87.6 ± 10.7 pg/mL
- Creatine Kinase Act. [4]: 155.6 ± 14.1** units per milliliter

Compound: FNSYELGSLKKGFYKKKQCRPSKGRKRGFCW [imm3K8]
- COL1 (Collagen-1A1 immunoreactivity in supernatant) [1]: 98

Compound: SLNPEWNETKGFYKKKQCRPSKGRKRGFCW(dA)(dV)(dD) (SLNPEWNETKGFYKKKQCRPSKGRKRGFCW[dA][dV][dD]; cysteine pairing not given here) [immX3K1dAdVdD]
- CD169+ (AU) [2]: 249.3 ± 13.9 AU
- Clec12A(AU) [2]: 321.9 ± 25.6 AU
- CCL22 [2]: 135.8 ± 24.2 pg/mL
- Heparin binding (fluorescence counts) [5]: 56.0 ± 7.3**
- Hyaluronate binding (fluorescence counts) [6]: 101.9 ± 16.4

Compound: AFNSYELGSKGFYKKKQCRPSKGRKRGFCWAVDKY [imm3K9c]
- COL1 (Collagen-1A1 immunoreactivity in supernatant) [1]: 158**

Compound: RNGNFHPKQCHPALDGQRGKCWAVD [immX4AVD]
- CD169+ (AU) [2]: 1.0 ± 0.3 AU
- Heparin binding (fluorescence counts) [5]: 7.3 ± 17.1
- Hyaluronate binding (fluorescence counts) [6]: 61.1 ± 34.1

Compound: AFNSYELGSKGFYKKKQCRPSKGRKRGFCW [imm3K9]
- COL1 (Collagen-1A1 immunoreactivity in supernatant) [1]: 155**

Compound: CSCC[C@H](NC(=O)[C@H](CCCCN)NC(=O)[C@H](CS)NC(=O)[C@H](CCC(N)=O)NC(=O)[C@H](CCCCN)NC(=O)[C@H](CC(C)C)NC(=O)[C@H](CC(N)=O)NC(=O)[C@H](Cc1ccc(O)cc1)NC(=O)[C@H](CC(C)C)NC(=O)CNC(=O)[C@H](Cc1c[nH]cn1)NC(=O)[C@@H](N)CCCCN)C(=O)N[C@@H](CO)C(=O)N[C@@H](CC(C)C)C(=O)N[C@@H](CC(N)=O)C(=O)NCC(=O)N[C@@H](CCC(N)=O)C(=O)N[C@@H](CCCNC(=N)N)C(=O)NCC(=O)N[C@@H](CCC(=O)O)C(=O)N[C@@H](CS)C(=O)N[C@@H](Cc1c[nH]c2ccccc12)C(=O)O [imm2]
- CD169+ (AU) [2]: 3.0 ± 0.5 AU
- Binding to Phosphatidylinositol [7]: —
- Binding to PtdIns(3,4,5)P [PIP3] [7]: —
- Binding to PtdIns(4)P [PIP1] [7]: —
- Binding to PtdIns(4,5)P [PIP2] [7]: —
- Heparin binding (fluorescence counts) [5]: 27.4 ± 22.9
- Hyaluronate binding (fluorescence counts) [6]: 3.1 ± 9.8

Compound: RKGFYKRKQCKPSRGRKRGICWAVD [immX5AVD]
- CD169+ (AU) [2]: 100.9 ± 3.5 AU
- CCL22 [2]: 228.6 ± 8.1 pg/mL
- FoxP3 (AU) [3]: 14.8 ± 4.3** AU
- CCL22 (pg/ml) ([3]; supernatant): 58.7 ± 2.7** pg/ml
- IL-10 (pg/ml) ([3]; supernatant): 870 ± 8.2** pg/ml
- TGFb (pg/ml) ([3]; supernatant): 52.8 ± 7.4** pg/ml
- FITC-HMW-HA binding, CONTROL ([8]; pH 5.2): 66.6 ± 7.2**
- FITC-HMW-HA binding, +cold HMW-HA ([8]; pH 5.2): 9.6 ± 6.5**
- FITC-HMW-HA binding, +cold LMW-HA ([8]; pH 5.2): 76.8 ± 5.9
- FITC-HMW-HA binding, +cold PIP2 ([8]; pH 5.2): 52.8 ± 4.0**
- FITC-HMW-HA binding, +cold HMW-HA ([8]; pH 7.4): 22.6 ± 8.8**
- FITC-HMW-HA binding, +cold LMW-HA ([8]; pH 7.4): 94.9 ± 11.4
- FITC-HMW-HA binding, +cold PIP2 ([8]; pH 7.4): 53.7 ± 2.1**
- FITC-HMW-HA binding, CONTROL ([8]; pH 7.4, peptide binding control = 100): 100.0 ± 7.6
- Heparin binding (fluorescence counts) [5]: 68.7 ± 26.2
- Hyaluronate binding (fluorescence counts) [6]: 113.9 ± 15.7

Compound: KKGFYKKKQCRPSKGRKRGFCW(dA)(dV)(dD) (KKGFYKKKQCRPSKGRKRGFCW[dA][dV][dD]; cysteine pairing not given here) [immX3dAdVdD]
- CD169+ (AU) [2]: 183.3 ± 6.4 AU
- Clec12A(AU) [2]: 106.6 ± 5.2 AU
- Heparin binding (fluorescence counts) [5]: 55.5 ± 5.7**
- Hyaluronate binding (fluorescence counts) [6]: 104.2 ± 14.7
- Creatine Kinase Act. [4]: 132.8 ± 5.2** units per milliliter

Compound: N=C(N)NCCC[C@H](NC(=O)[C@H](CCCNC(=N)N)NC(=O)[C@H](CCC(N)=O)NC(=O)CNC(=O)[C@H](CCC(N)=O)NC(=O)[C@H](CO)NC(=O)[C@H](CO)NC(=O)[C@H](CCCNC(=N)N)NC(=O)[C@H](CS)NC(=O)[C@H](CCC(N)=O)NC(=O)[C@H](CCCNC(=N)N)NC(=O)[C@H](CCCCN)NC(=O)[C@H](CCCNC(=N)N)NC(=O)[C@H](Cc1ccc(O)cc1)NC(=O)[C@H](Cc1ccccc1)NC(=O)CNC(=O)[C@H](CCCNC(=N)N)NC(=O)[C@@H](N)Cc1c[nH]cn1)C(=O)NCC(=O)N1CCC[C@H]1C(=O)N[C@@H](CS)C(=O)N[C@@H](Cc1c[nH]c2ccccc12)C(=O)O [imm6] (H-HRGFYRKRQCRSSQGQRRGPCW-OH)
- CD169+ (AU) [2]: 19.9 ± 2.3 AU
- Binding to Phosphatidylinositol [7]: —
- Binding to PtdIns(3,4,5)P [PIP3] [7]: —
- Binding to PtdIns(4)P [PIP1] [7]: —
- Heparin binding (fluorescence counts) [5]: 97.2 ± 17.3
- Hyaluronate binding (fluorescence counts) [6]: 44.9 ± 14.1**
